The results in this text go back to US20040220164A1, “Triaza compound immunoregulatory agents” (priority 2001, published 2004).

For data set [1], the system named is HHV-7 (KHR strain). The data set is described as follows: Anti-HHV-7 assay in SupT1 cells (antigen expression, flow cytometry, Example 3). As to conditions: SUP-T1; SupT1 cells; read-out: IC50 HHV-7 (50% reduction of HHV-7 antigen expression). It counts as cell-based. The method, then:
For HHV-7, five-fold dilutions of the compounds were added in 500 μl culture medium in 24-well flat bottom plates (Iwaki, Japan), whereupon 2×10^5 SupT1 cells were added in 400 μl culture medium. After 30 min incubation at room temperature, 100 μl of HHV-7 stock was added to each well. HHV-7-infected and mock-infected SupT1 cells were cultured in a final volume of 1 ml medium in the absence of the compounds. On day 4, half of the medium and the cells were replaced and fresh medium without new compound was added. This procedure was repeated every 2 or 3 days. The CPE was checked regularly microscopically. When CPE was observed, the HHV-7 antigen expression was monitored by flow cytometry, as described previously (Zhang, Y. et al. (1999) “Selective activity of various antiviral compounds against HHV-7 infection Antiviral Res. 43, 23-35.)
For orientation: Flow cytometry measures light scatter and fluorescence of single cells or particles in a stream.

The target in data set [2] is T1, CD4 (Homo sapiens, UniProt P01730). The data set is described as follows: CD4 down-modulation, flow cytometry with FITC-conjugated anti-CD4 (SK3) mAb, SupT1 cells. The class given is cell-based. The arrangement: To study the effect of the CADA derivatives on surface CD4 antigen expression, MT-4 and SupT1 cells were incubated; endogenous in cells; host or cells: MT-4, SupT1, PBMC. Particulars: day 4, read-out: IC50 CD4 (50% inhibition of extracellular CD4 expression) (converted). The method, then:
(§1) Flow Cytometric Analyses. To study the effect of the CADA derivatives on surface CD4 antigen expression, MT-4 and SupT1 cells were incubated with a serial 5-fold dilution of the compounds (50, 10, 2, 0.4 and 0.08 μg/ml) or medium at 37° C. Cell surface CD4 antigen expression was analyzed at day 3 (MT-4) or day 4 (SupT1). Briefly, after washing with phosphate-buffered saline (PBS) containing 2% fetal calf serum (FCS), cells were incubated with FITC-conjugated anti-CD4 (SK3) mAb for 30 min at 4° C. As a negative control for a specific background staining, cells were stained in parallel with Simultest Control γ1/γ^2a (Becton Dickinson). Then the cells were washed, fixed with 1% formaldehyde and analyzed by flow cytometry in a FACScalibur (Becton Dickinson, San Jose, Calif., USA). Data were acquired and analyzed with CellQuest software (Becton Dickinson). For the calculation of the CD4 receptor expression, the mean fluorescence intensity (MFI) of each sample was expressed as percentage of the MFI of control cells (after subtracting the MFI of the isotype control). Finally, the IC50 value of the compounds (i.e., the concentration of the compound required for 50% inhibition of extracellular CD4 expression) was calculated.

Data set [3] has as its target T1, CD4. The data set is described as follows: CD4 down-modulation, flow cytometry with FITC-conjugated anti-CD4 (SK3) mAb, MT-4 cells. It counts as cell-based. On the set-up: To study the effect of the CADA derivatives on surface CD4 antigen expression, MT-4 and SupT1 cells were incubated; endogenous in cells; host or cells: MT-4, SupT1, PBMC. As to conditions: for IC50: MT-4 cells, day 3, read-out: IC50 CD4 (50% inhibition of extracellular CD4 expression) (converted); for CD4 down-modulating activity compared with CADA or parent analog (in words): structure-activity discussion of Table 5 (MT-4 and SupT1 cells); for CD4 down-modulating activity, fold less active than CADA: compared to CADA, MT-4 cells (stated for some compounds). The method, then: as §1, with “Cell surface CD4 antigen expression was analyzed at day 3 (MT-4) or day 4 (SupT1).” left out

The nature of data set [4]: Cytotoxicity assay (trypan blue exclusion, propidium iodide). The class given is cell-based, human. As to conditions: human. The method, then: Cytotoxicity Assay. Cellular toxicity of the compounds was measured by trypan blue exclusion and also by Propidium Iodide by flow cytometry after 3 or 4 days of incubation, in parallel with the CD4 antigen expression. The CC50 value of each CADA analog is the concentration (in μg/ml) required to reduce the viability of the cells by 50%.

The test system of data set [5] is HIV-1 strain NL4.3. The data set is described as follows: Anti-HIV-1 assay in MT-4 cells (p24 Ag ELISA, Example 3). The class given is cell-based. On the procedure: Antiviral Assays. For HIV-1, MT-4 cells were infected with the HIV-1 strain NL4.3. Briefly, five-fold dilutions of the compounds (in 100 μl) were added to 96-well flat bottom plates (Iwaki, Japan). Then, to each well, 7.5×10^4 MT-4 cells were added in 50 μl medium, followed by 50 μl of diluted HIV-1 stock (strain NL4.3). Cytopathic effect (CPE) induced by the virus was checked regularly microscopically. When strong CPE was observed (after 3 to 5 days of incubation) in untreated HIV-1 infected cells, the supernatant was collected, stored at −20° C. and analyzed for HIV-1 core antigen by p24 Ag ELISA (NEN™, PerkinElmer Life Sciences, Boston, Mass.). Finally, the IC50 value of the compounds (i.e., the concentration of the compound required for 50% reduction of HIV infection as measured by viral p24 antigen level in the supernatant of infected MT-4 cells) was calculated.
(In general: ELISA stands for enzyme-linked immunosorbent assay.)

Data set [6] addresses T1, CD4. The data set is described as follows: Cell surface CD4 expression by flow cytometry (anti-CD4 mAb Leu3a-PE). The class given is cell-based. On the set-up: To study the effect of the CADA derivatives on surface CD4 antigen expression, MT-4 and SupT1 cells were incubated; endogenous in cells; host or cells: MT-4, SupT1, PBMC. As to conditions: staurosporine together with CADA. On the procedure:
FIGS. 2A-2C. Surface CD4 expression in MT-4 cell line, SupT1 cell line and PBMCs after incubation with CADA hydrochloride (3.2 or 16 μM) for 1 and 4 days. (A) Cell surface CD4 expression of control MT-4 cells and MT-4 cells treated with CADA (3.2 μM) for 1 day or 4 days. (B) Cell surface CD4 expression of control SupT1 cells and SupT1 cells treated with CADA (3.2 μM) for 1 day or 4 days. (C) Cell surface CD4 expression of control PBMCs and PBMCs treated with CADA (16 μM) for 1 day or 4 days. The cells were stained with anti-CD4 mAb (Leu3a-PE). Percentages of fluorescent cells and MFI (mean fluorescence intensity) are indicated in each histogram.
FIG. 4. Comparison of the effects on CD4 modulation by ATA (24 μM), CADA hydrochloride (16 μM) and PMA (8 nM) in SupT1 cells after incubation with the compounds analyzed after 20 minutes, 4 hours, 1 day and 4 days.
Cells were incubated with CADA hydrochloride and the CD4 expression on the cell surface was analyzed. […] In peripheral blood mononuclear cells (PBMCs), the percentage of CD4 expression decreased to 0.2% after incubation with CADA (16 μM) for 4 days (FIG. 2).
Expression of various other surface antigens was also examined in MT-4 cells, SupT1 cells and PBMCs after incubation with CADA (16 μM) or CADA-free medium at 37° C. for 4 days. After washing with phosphate-buffered saline (PBS) containing 2% FCS(fetal calf serum), the cells were incubated with mAb (as indicated in Table 1) for 20 min at 4° C. Then the cells were washed, fixed with 1% formaldehyde and analyzed by flow cytometry. All mAbs were purchased from Becton-Dickinson (Erembodegem, Belgium).
CADA was compared with ATA and PMA with regard to their down-modulating effects. […] At day 4, the CD4 expression in SupT1 cells treated with CADA reduced to 1.2%.

Setting [7] is: MT-4 cells, read-out: CC50 (50% cytotoxic concentration).
The mark [8] stands for this setting: SupT1 cells, read-out: CC50 (50% cytotoxic concentration).
The mark [9] stands for this setting: Human immunodeficiency virus 1, MT4, MT-4 cells, read-out: IC50 HIV-1 (NL4.3), p24 Ag ELISA.
Setting [10] is: MT-4 cells, MT4 cells, Table 6, unit inferred, read-out: CC50.
[11] abbreviates: SupT1 cells, Table 6, unit inferred, read-out: CC50.
The mark [12] stands for this setting: Human immunodeficiency virus 1, MT4 cells, Table 6, unit inferred, read-out: IC50(HIV-1).

Values after ≈ are worked out from the molar mass of the structure shown. Where two headings read alike, the source gives them in different places.

By IC50 is commonly meant the concentration that gives 50% inhibition. For `C=C1CN(S(=O)(=O)c2ccc(C)cc2)CCCN(S(=O)(=O)c2ccc(C)cc2)CCCN(S(=O)(=O)c2ccc(C)cc2)C1` [AS112], the IC50 is over 50 µg/mL in data set [1], over 77.4 µM in data set [2], over 15.5 µM in data set [3] and over 10 µg/mL in data set [5] (setting [9]). In addition, the “CD4 down-modulating activity compared with CADA or parent analog (in words)” value in data set [3] was “negative effect”. Also, the figures for the CC50 in data set [4] (setting [7]) and in data set [4] (setting [8]) were 27.8 µg/mL (≈ 43 µM) and over 50 µg/mL, respectively.

With `Cc1ccc(S(=O)(=O)N2CCCN(Cc3ccccc3)CCCN(S(=O)(=O)c3ccc(C)cc3)CC(CCl)C2)cc1` [AS117], the IC50 in data set [1] is 0.78 µg/mL (≈ 1.26 µM); in data set [2], 2.41 µM; in data set [3] it was 1.81 µM; in data set [5] (setting [9]), 1.15 µg/mL (≈ 1.86 µM). The “CD4 down-modulating activity, fold less active than CADA” value in data set [3] is listed as 3 fold. In addition, the results for the CC50 in data set [4] (setting [7]) and in data set [4] (setting [8]) were 30.7 µg/mL (≈ 49.7 µM) and over 50 µg/mL, respectively.

For `C=C1CN(S(=O)(=O)c2ccc(Br)cc2)CCCN(Cc2ccccc2)CCCN(S(=O)(=O)c2ccc(Br)cc2)C1` [AS-PB127], the IC50 in data set [1] was 0.88 µg/mL (≈ 1.24 µM); in data set [2], 2.49 µM; in data set [3], 1.98 µM; in data set [5] (setting [9]), 1.4 µg/mL (≈ 1.97 µM). In addition, the “CD4 down-modulating activity, fold less active than CADA” value in data set [3] is listed as 4 fold. The results for the CC50 in data set [4] (setting [7]) and in data set [4] (setting [8]) were 35.7 µg/mL (≈ 50.2 µM) and over 50 µg/mL, respectively.

For the compound `C=C1CN(S(=O)(=O)c2ccc(C)cc2)CCCN(C(=O)OCC)CCCN(S(=O)(=O)c2ccc(C)cc2)C1` [Compound 95-213], the IC50 was 0.68 µg/mL (≈ 1.21 µM) in data set [1], 17.1 µM in data set [2], 11.5 µM in data set [3] and 8.05 µg/mL (≈ 14.3 µM) in data set [5] (setting [9]). Further, the CC50 in data set [4] (setting [7]) and in data set [4] (setting [8]) was over 50 µg/mL each time.

Consider `C=C1CN(S(=O)(=O)c2ccc(C)cc2)CCCN(CC(C)C)CCCN(S(=O)(=O)c2ccc(C)cc2)C1` [Compound 98-035], for which the IC50 in data set [1] is 0.7 µg/mL (≈ 1.28 µM); in data set [2], 9.73 µM; in data set [3], 8.78 µM; in data set [5] (setting [9]), 4.82 µg/mL (≈ 8.8 µM). For the same compound, the “CD4 down-regulating activity, fold less active than QJ036” value in data set [3] (compared to QJ036) came out at 4 fold. In addition, the CC50 in data set [4] (setting [7]) and in data set [4] (setting [8]) was over 50 µg/mL throughout.

Regarding `C=C1CN(S(=O)(=O)c2ccc(C)cc2)CCCN(Cc2ccccn2)CCCN(S(=O)(=O)c2ccc(C)cc2)C1` [Compound 98-037], the IC50 was over 50 µg/mL in data set [1], over 85.8 µM in data set [2], over 85.8 µM in data set [3] and over 50 µg/mL in data set [5] (setting [9]). In data set [3], the “CD4 down-modulating activity compared with CADA or parent analog (in words)” value is on record as “complete loss of activity”. Further, the CC50 in data set [4] (setting [7]) and in data set [4] (setting [8]) was over 50 µg/mL in each case.

On to `Cc1ccc(S(=O)(=O)N2CCCN(S(=O)(=O)c3ccc(C)cc3)CC(C)(O)CN(S(=O)(=O)c3ccc(C)cc3)CCC2)cc1` [HJC241], for which the IC50 was 1.09 µg/mL (≈ 1.64 µM) in data set [1], over 75.3 µM in data set [2], 2.86 µM in data set [3] and over 10 µg/mL in data set [5] (setting [9]). For the same compound, the CC50 in data set [4] (setting [7]) is 32 µg/mL (≈ 48.2 µM); in data set [4] (setting [8]), over 50 µg/mL.

Regarding `C=C1CN(S(=O)(=O)c2ccc(C)cc2)CCCN(Cc2ccccc2)CCCN(S(=O)(=O)c2cccc3c(N(C)C)cccc23)C1` [KKD015, 9-Benzyl-3-methylene-1-(5-dimethylamino-1-naphthalenesulfonyl)-5-p-toluenesulfonyl-1,5,9-triazacyclododecane], the CC50 in data set [4] (setting [10]) and in data set [4] (setting [11]) was over 100 µg/mL in each case. For the same compound, the IC50 in data set [5] (setting [12]) was 6.7 µg/mL (≈ 10.1 µM).

For the compound `C=C1CN(S(=O)(=O)c2ccc(C)cc2)CCCN(CC2CCCCC2)CCCN(S(=O)(=O)c2cccc3c(N(C)C)cccc23)C1` [KKD016, 9-methylcyclohexane-3-methylene-1-(5-dimethylamino-1-naphthalenesulfonyl)-5-p-toluenesulfonyl-1,5,9-triazacyclododecane], the CC50 in data set [4] (setting [10]) was 61.2 µg/mL (≈ 91.8 µM); in data set [4] (setting [11]), 27.4 µg/mL (≈ 41.1 µM). For the same compound, in data set [5] (setting [12]), the IC50 worked out at 1.15 µg/mL (≈ 1.72 µM).

With `CN[C@@H]1C[C@H]2O[C@@](C)([C@@H]1OC)n1c3ccccc3c3c4c(c5c6ccccc6n2c5c31)C(=O)NC4` [staurosporine, reference compound], the “effect of PKC blocker on the down-modulation of CD4 with CADA” value in data set [6] is recorded as “did not show any effect”.
